Source: patent publication US5659048A, “Chiral [[(2-bromoethyl)-amino]methyl]-2-nitro-1H-imidazol-1-ethanol and related compounds” (priority 1995, dated 1997)

Assays:
beagle dogs = assay: Emesis Studies in beagle dogs; assay type: in vivo; details: dogs, IV; result in words
Description: (§1) Beagle dogs (approximately 10 kg body weight) were treated intravenously with a 10-minute infusion of 20 mL of the test compound prepared in sodium lactate buffer, pH 4.0. Dogs were scored over a 6-hour postdosing period for both the number of emetic episodes and the relative volume. Antiemetic therapy consisted of a 5-minute infusion of ondansetron, administered at a dose of 0.3 mg/kg 30 minutes prior to treatment with the nitroimidazole.

[1] = Emesis Studies in beagle dogs; assay type: in vivo; details: dog, in vivo; IV, 10-minute infusion, 6-hour postdosing scoring; threshold dose at which 50% of animals exhibited emetic response; read-out: Emesis (Dogs) ED50
Description: as §1

SCC7 carcinoma = assay: Radiosensitizing efficacy in mice: tumor growth delay, SCC7 carcinoma; assay type: in vivo, B6 C3 F1 mice; details: IP at maximum tolerated dose every 12 hours, 30 min before 2.5 Gray, 8 fractions
Description: Tumor growth delay was assessed in B6 C3 F1 mice implanted IM with 5×10^5 SCC7 carcinoma tumor cells. On Days 10 through 13 post tumor implantation, mice were treated every 12 hours with the maximum tolerated dose of test agent (determined from a 10-day multiple treatment schedule). Thirty minutes later, mice were irradiated at the tumor site with a 2.5 Gray dose of x-rays. Upon completion of this 8 fraction protocol, tumor growth was monitored daily.

B6 C3 F1 mice = assay: Mouse Toxicity Studies (14-day lethality, LD10 by probit analysis); assay type: in vivo
Description: B6 C3 F1 mice were treated with varying doses of test agent by either intraperitoneal, intravenous, or oral administration. […] The maximum tolerated dose was established as the dose equal to or less than the LD10 as determined from a probit analysis.

KHT fibrosarcoma = assay: Radiosensitizing efficacy in mice: excision assay, clonogenic survival of KHT fibrosarcomas; assay type: in vivo, B6 C3 F1 mice; details: 250 mg/kg IP, 30 min before 10 Gray whole body irradiation
Description: Clonogenic survival of KHT fibrosarcomas was determined in assays employing B6 C3 F1 mice. Tumors were implanted subcutaneously by trocar. Nine days postimplantation, when tumors ranged from 200 to 400 mg in size, mice were treated IP with a range of drug doses including the maximum tolerated dose of the test agent. Thirty minutes later mice received whole body irradiation at a dose of 10 Gray, delivered at a rate of 2 Gray/minute with a 320 kV x-ray machine. Twenty-four hours after treatment, animals were sacrificed, and tumors were excised. Tumors were enzymatically digested to give single cell suspensions prior to plating for cell survival by clonogenic assay.

Structure (SMILES): Br.O=[N+]([O-])c1nccn1C[C@H](O)CNCCBr [(R), (R)-(+)-α-[[(2-Bromoethyl)amino]methyl]-2-nitro-1H-imidazole-1-ethanol, monohydrobromide]
- Emesis relative to (S) isomer or racemic mixture (beagle dogs): significantly less emesis than the (S) isomer or the mixture
- TD50 at 6 h [1]: 12 mg/kg
- Growth Delay Fold Enhancement (SCC7 carcinoma): 2.1 Fold
- LD10 (B6 C3 F1 mice; IP): 850 mg/kg
- LD10 (B6 C3 F1 mice; IV): 900 mg/kg
- LD10 (B6 C3 F1 mice; PO): 1100 mg/kg
- Excision (250 mg/kg), % control (KHT fibrosarcoma): 11 % control

Structure (SMILES): Br.O=[N+]([O-])c1nccn1C[C@@H](O)CNCCBr [(S), (S)-(-)-α-[[(2-Bromoethyl)amino]methyl]-2-nitro-1H-imidazole-1-ethanol, monohydrobromide]
- TD50 at 6 h [1]: 4 mg/kg
- Growth Delay Fold Enhancement (SCC7 carcinoma): 1.8 Fold
- LD10 (B6 C3 F1 mice; IP): 850 mg/kg
- LD10 (B6 C3 F1 mice; IV): 900 mg/kg
- LD10 (B6 C3 F1 mice; PO): 1100 mg/kg
- Excision (250 mg/kg), % control (KHT fibrosarcoma): 11 % control
